Data reported in patent US12622910B2, “Inhibitors of Bruton's tyrosine kinase and methods of their use” (Janssen Pharmaceutica NV, priority 2021, dated 2026).
Read-outs that look alike come from different tables or passages of the source.

Key:
[1] = Metabolic stability in hepatocytes; type: in vitro ADME; settings: for half-life: read-out: T1/2, hepatocytes
Procedure: Additional Data on Preclinical PK Profile—Protein binding of the compound of Formula (III) was studied using an equilibrium dialysis method in plasma from human, cynomolgus monkey, beagle dog, Sprague Dawley rat, CD-1 mouse, and guinea pig at 0.25, 2.5, and 25 μM. […] In human and monkey, the plasma protein binding was concentration dependent. […] Free fraction of the compound of Formula (III) in liver microsomes from various species ranged from 75.1% to 87.9% at 0.25 mg/mL and from 58.9% to 86.5% at 1.0 mg/mL (Table 17). […] In hepatocytes, the compound of Formula (III) turnover followed a similar trend, with T1/2 ranging from 75.3 minutes in monkey to 278.1 minutes in human.

[2] = Population PK model and simulations; parameters: species or system human
Source text: PK/PD modeling and simulation—In the PK/PD model, a two-compartment population PK (popPK) model with a first-order absorption and elimination was used to fit the PK data. The model was parameterized in terms of apparent clearance (CL/F), apparent volume of distribution of the central compartment (V2/F), apparent inter-compartmental clearance (Q/F), apparent volume of distribution of the peripheral compartment (V3/F), and first-order absorption rate constant (Ka). Inter-individual variability was included on CL/F, V2/F, Q/F, and Ka. Following the development of the popPK model, the PK/PD model was subsequently developed based on individual estimates from the popPK model.
Once MAD data were available, the semi-mechanistic PK/PD model was updated with the acquired data from SAD and MAD cohorts. All covariate effects in the popPK analysis were evaluated on clearance from the central compartment (CL/F) only, except for body weight, food effect, and drug formulation. Body weight was included in the structural model (as a covariate on the CL/F, V2/F, Q/F). […] Food effect and drug formulation were evaluated on Ka. The covariates model selection was conducted using a full-model approach with backward elimination (nominal p<0.001, i.e., a change in the objective function value of 10.83 with 1 degree of freedom). A covariate model was initially developed using all statistically significant covariates of interest, and was then reduced by removing covariates with effect sizes less than 10% of the typical values of the respective PK parameters. This reduced model was regarded as the final mode which was subsequently used for PD model. Model selection was determined by graphical assessment, statistically significant difference in the objective function value between competing models. The performance of the final model was evaluated using a prediction-corrected visual predictive check (pcVPC; n=1000 replicates).
The semi-mechanistic PK/PD model was performed using NONMEM (version 7.3.0, ICON Development Solutions LLC, Ellicott City, MD, United States). The use of NONMEM, including model qualification procedures, were facilitated within the environment of Perl-speaks-NONMEM (version 4.6.0, a compatible front-end program for NONMEM. Data management, exploratory analyses, diagnostic graphics, and post processing of the data and NONMEM outputs were performed using R (version 3.4.1, The R Project for Statistical Computing, statistical software). All analyses were performed in a validated environment, High Performance Pharmacometrics Platform System (Rudraya Sonic version 4 or higher), based on Good Automated Manufacturing Practice and in accordance with 21 CFR Part 11 and Good Clinical Practice regulations.

BTK = BTK (Homo sapiens, UniProt Q06187); assay: Phase 1 study, BTK occupancy in PBMCs; type: in vivo; parameters: measuring free BTK levels in peripheral blood mononuclear cells (PBMCs) and calculating % BTKO; endogenous in cells; host or cells: human PBMCs, lysed after isolation from whole blood; settings: for BTKO at 24 hr, ss, median observed / Calculated Average BTKO, observed / Max BTKO at ss, median observed: Day 10 oral solution; for mean BTKO: all MAD dose groups
Chain of BTK (Q06187 whole entry): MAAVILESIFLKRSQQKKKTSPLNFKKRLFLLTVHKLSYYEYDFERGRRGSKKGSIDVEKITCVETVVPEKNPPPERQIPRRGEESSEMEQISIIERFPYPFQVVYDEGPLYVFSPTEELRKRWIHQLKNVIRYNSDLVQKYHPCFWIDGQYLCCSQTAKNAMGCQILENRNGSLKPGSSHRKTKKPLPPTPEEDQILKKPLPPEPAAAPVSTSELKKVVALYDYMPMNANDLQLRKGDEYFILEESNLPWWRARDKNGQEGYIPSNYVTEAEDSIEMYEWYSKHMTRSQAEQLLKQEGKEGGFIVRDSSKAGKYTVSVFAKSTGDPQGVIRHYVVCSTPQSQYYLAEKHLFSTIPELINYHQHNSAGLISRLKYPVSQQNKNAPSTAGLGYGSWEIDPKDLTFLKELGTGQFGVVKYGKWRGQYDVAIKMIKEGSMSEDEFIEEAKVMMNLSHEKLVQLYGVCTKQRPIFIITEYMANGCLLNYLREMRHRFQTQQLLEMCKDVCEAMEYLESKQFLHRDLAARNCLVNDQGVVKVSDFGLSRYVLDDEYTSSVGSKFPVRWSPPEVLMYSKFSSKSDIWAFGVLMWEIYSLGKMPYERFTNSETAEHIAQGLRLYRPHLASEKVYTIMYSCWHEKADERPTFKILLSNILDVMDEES
Procedure: Pharmacodynamics (BTKO)—In Part 1, venous blood samples (8 mL) were collected predose and at 1, 2, 4, 8, 12, 24, 48, and 72 hours post-dose for measuring free BTK levels in peripheral blood mononuclear cells (PBMCs) and calculating % BTKO. In Part 2, blood samples were taken on day 1 predose and at 2, 4, and 8 hours after dosing; days 2-10 predose and 4 hours post-dose; and at 24, 48, and 72 hours after the last dose and at the follow-up visit.
After PBMCs were isolated from whole blood, they were lysed and prepared for the measurement of BTK occupancy using a custom streptavidin-coated Meso Scale Discovery (MSD) immunoassay. Percent occupancy was calculated as 100%×([Baseline free BTK−Free BTK with treatment]/Baseline Free BTK).

P-gp (MDR1) = assay: in vitro; settings: dog, MDCK-MDR1
Procedure: In vitro Absorption, Distribution, Metabolism, and Excretion—The compound of Formula (III) was assessed at a concentration of 5 μM in cell permeability models.

[3] = model (B), all SAD and MAD data

C=CC(=O)N[C@H]1CCC[C@H]1NC(=O)c1sc2nccc3c2c1NC(=O)N3c1cnc(CC(C)C)cc1C (atropisomer, axis not shown) [compound of Formula (III), N-((1R,2S)-2-Acrylamidocyclopentyl)-5-(S)-(6-isobutyl-4-methylpyridin-3-yl)-4-oxo-4,5-dihydro-3H-1-thia-3,5,8-triazaacenaphthylene-2-carboxamide]
hepatocyte CLint ([1]; dog): 19.2 µL/min/1e6 cells | half-life ([1]; dog): 4.62 h | hepatocyte CLint ([1]; human): 15.4 µL/min/1e6 cells | half-life ([1]; human): 4.64 h | hepatocyte CLint ([1]; rat): 52.3 µL/min/1e6 cells | half-life ([1]; rat): 2.12 h | CL/F, popPK estimate ([2]; model (A), first 5 SAD cohorts): 49.4 L/h | Ka, popPK estimate ([2]; model (A), first 5 SAD cohorts): 1.94 h⁻¹ | Q/F, popPK estimate ([2]; model (A), first 5 SAD cohorts): 1.57 L/h | V1/F, popPK estimate ([2]; model (A), first 5 SAD cohorts): 108.9 L | CL/F, popPK estimate [2, 3]: 62.4 L/h | FORM = Oral Capsule on Ka (covariate effect) [2, 3]: 0.325 | Ka, popPK estimate [2, 3]: 1.97 h⁻¹ | NURT = Fed, standard meal on Ka (covariate effect) [2, 3]: 0.339 | Q/F, popPK estimate [2, 3]: 2.85 L/h | V1/F, popPK estimate [2, 3]: 129.6 L | BTKO at 24 hr, ss, median observed (BTK; 36 mg QD): 69.5% | Calculated Average BTKO, observed (BTK; 36 mg QD): 74.2% | Max BTKO at ss, median observed (BTK; 36 mg QD): 78.9% | mean % BTKO (BTK; 36 mg QD, day 1, 4 hours): 34% | mean % BTKO (BTK; 36 mg QD, day 10, 4 hours): 80% | BTKO at 24 hr, ss, median observed (BTK; 100 mg QD): 84.1% | Calculated Average BTKO, observed (BTK; 100 mg QD): 89.1% | Max BTKO at ss, median observed (BTK; 100 mg QD): 94.1% | mean % BTKO (BTK; 100 mg QD, day 1, 4 hours): 61% | mean % BTKO (BTK; 100 mg QD, day 10, 4 hours): 91% | BTKO at 24 hr, ss, median observed (BTK; 200 mg QD): 78.9% | Calculated Average BTKO, observed (BTK; 200 mg QD): 88.8% | Max BTKO at ss, median observed (BTK; 200 mg QD): 98.8% | mean % BTKO (BTK; 200 mg QD, day 1, 4 hours): 94% | mean % BTKO (BTK; 200 mg QD, day 10, 4 hours): 98% | mean % BTKO lower, capsule vs solution (BTK; 4 hours post-dose): ≈ 37% | mean % BTKO lower, capsule vs solution (BTK; 24 hours post-dose): ≈ 30% | mean % BTKO at follow-up visit (7-14 days) (BTK; Part 1, all treatment groups): ≤ 42% | mean % BTKO at follow-up visit (7 to 14 days) (BTK; Part 2, all treatment groups): < 40% | mean BTKO (BTK; 24 hours after Day 10 dose): above 65% | mean BTKO (BTK; 72 hours after Day 10 dose): > 30% | mean % BTKO (BTK; single 36 mg, females, 4 hours): 55% | mean % BTKO (BTK; single 36 mg, males, 4 hours): 39% | peak mean % BTKO (BTK; single 100 mg solution, fed, 8 hours post-dose): 73% | mean % BTKO (BTK; single 100 mg solution, male fasted, 4 hours post-dose): 86% | mean % BTKO (BTK; single 100 mg, females, 4 hours): 81% | mean % BTKO (BTK; single 105 mg capsule, 4 hours): 54% | mean % BTKO (BTK; single 105 mg capsule, 24 hours): 53% | maximum % BTKO (mean) (BTK; single and multiple doses ≥100 mg): ≥ 90% | duration of BTKO (BTK; single doses ≥100 mg): up to 72 hours | % BTKO (BTK; single doses ≥100 mg, male fasted, 4 hours): ~100% | Papp A→B at 5 μM (P-gp (MDR1)): < 0.483 ×10⁻⁶ cm/s | Papp B→A at 5 μM (P-gp (MDR1)): 55.4 ×10⁻⁶ cm/s | efflux ratio at 5 μM (P-gp (MDR1)): > 115
